According to ChEMBL document CHEMBL1201862, “PubChem BioAssay data set” (2004):
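Compound exposure: 48 hours, 5 concentrations, 96-well plates. GI50: concentration for 50% inhibition of growth.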 Activity calls are given as the source filed them. Rule as the data show it: active = GI50 up to about 1.1 µM and inactive = higher.

Columns and labels:
Assay in all cases: NCI-60 cell line screen, 48 h
[1] = system: ACHN
[2] = system: BT-549
[3] = system: HCT-116
[4] = system: HL-60
[5] = system: HOP-62
[6] = system: KM12
[7] = system: MCF7
[8] = system: MDA-MB-435
[9] = system: NCI-H226
[10] = system: NCI-H460
[11] = system: NCI-H522
[12] = system: PC-3
[13] = system: SK-MEL-28
[14] = system: SK-MEL-5
[15] = system: SNB-19
[16] = system: SR
[17] = system: T47D
[18] = system: U-251
[19] = system: UO-31

| Compound | GI50 [1] | GI50 [2] | GI50 [3] | GI50 [4] | GI50 [5] | GI50 [6] | GI50 [7] | GI50 [8] | GI50 [9] | GI50 [10] | GI50 [11] | GI50 [12] | GI50 [13] | GI50 [14] | GI50 [15] | GI50 [16] | GI50 [17] | GI50 [18] | GI50 [19] |
| --- | --- | --- | --- | --- | --- | --- | --- | --- | --- | --- | --- | --- | --- | --- | --- | --- | --- | --- | --- |
| COC(=O)/C=C1/OC(c2ccccc2)=C(Cl)C1=O | 17.7 µM (inactive) | 18.5 µM (inactive) | 13.1 µM (inactive) | 3.95 µM (inactive) | 25.9 µM (inactive) | 21 µM (inactive) | 16.7 µM (inactive) | 19.3 µM (inactive) | 27.5 µM (inactive) | 25 µM (inactive) | 17.9 µM (inactive) | 15.2 µM (inactive) | 21.1 µM (inactive) | 14.9 µM (inactive) | 31.3 µM (inactive) | 4.72 µM (inactive) | 19.1 µM (inactive) | 14 µM (inactive) | 20.9 µM (inactive) |
| CC1(C)C2CCC3=C(CCC4(C)C5C[C@](C)(C(=O)O)CC[C@]5(C)CC[C@]34C)[C@@]2(C)CC[C@@H]1O (some centres undefined) | 12.1 µM (inactive) | 20.1 µM (inactive) | 16.6 µM (inactive) | 18.1 µM (inactive) | 17 µM (inactive) | 15.4 µM (inactive) | 19.9 µM (inactive) | 23.7 µM (inactive) | 29 µM (inactive) | 15.2 µM (inactive) | 20 µM (inactive) | 14.8 µM (inactive) | 17.5 µM (inactive) | 34.3 µM (inactive) | > 10 µM (inactive) | 30.8 µM (inactive) | 18 µM (inactive) | 13.1 µM (inactive) | 29.4 µM (inactive) |
| COc1ccc2cc(CNCCOCCOCCNCc3ccc4cc(OC)ccc4c3)ccc2c1 | 1.6 µM (inactive) | 1.89 µM (inactive) | 1.23 µM (inactive) | 0.216 µM (active) | 1.69 µM (inactive) | 0.881 µM (active) | 0.887 µM (active) | 0.494 µM (active) | 1.55 µM (inactive) | 0.655 µM (active) | 1.54 µM (inactive) | 1.54 µM (inactive) | 0.869 µM (active) | 0.675 µM (active) | 1.49 µM (inactive) | 0.251 µM (active) | 1.06 µM (active) | 1.31 µM (inactive) | 1.32 µM (inactive) |
| Fc1ccc(OCc2nc3cc(C(F)(F)F)ccc3nc2-c2ccccc2)cc1 | > 100 µM (inactive) | > 46.1 µM (inactive) | 99.5 µM (inactive) | > 47 µM (inactive) | > 100 µM (inactive) | > 100 µM (inactive) | 67.8 µM (inactive) | > 63.8 µM (inactive) | > 100 µM (inactive) | > 100 µM (inactive) | 28.4 µM (inactive) | > 100 µM (inactive) | > 100 µM (inactive) | 29.7 µM (inactive) | > 83 µM (inactive) | 41.9 µM (inactive) | 62.5 µM (inactive) | > 100 µM (inactive) | > 100 µM (inactive) |
| O=C(Nc1ccccc1)c1cc2cc(CCl)ccc2oc1=O | 17 µM (inactive) | > 100 µM (inactive) | > 100 µM (inactive) | 41.6 µM (inactive) | 81.7 µM (inactive) | > 100 µM (inactive) | 26.4 µM (inactive) | > 100 µM (inactive) | > 100 µM (inactive) | > 100 µM (inactive) | 70.3 µM (inactive) | > 100 µM (inactive) | > 100 µM (inactive) | > 100 µM (inactive) | 80.4 µM (inactive) | 41.5 µM (inactive) | > 100 µM (inactive) | 47 µM (inactive) | > 100 µM (inactive) |
| CN(C)CCNC(=O)c1cccc(CO)c1[N+](=O)[O-] | > 100 µM (inactive) | > 100 µM (inactive) | > 100 µM (inactive) | > 100 µM (inactive) | > 100 µM (inactive) | > 100 µM (inactive) | > 100 µM (inactive) | > 100 µM (inactive) | > 100 µM (inactive) | > 100 µM (inactive) | > 100 µM (inactive) | > 100 µM (inactive) | > 100 µM (inactive) | > 100 µM (inactive) | > 100 µM (inactive) | > 100 µM (inactive) | > 100 µM (inactive) | > 100 µM (inactive) | > 100 µM (inactive) |
| CS/C(Nc1ccccc1)=C1\C(=O)N(c2ccccc2)N=C1C | – | > 100 µM (inactive) | > 100 µM (inactive) | > 100 µM (inactive) | – | > 100 µM (inactive) | > 100 µM (inactive) | > 100 µM (inactive) | > 100 µM (inactive) | > 100 µM (inactive) | 35.1 µM (inactive) | > 100 µM (inactive) | > 100 µM (inactive) | > 100 µM (inactive) | > 100 µM (inactive) | > 100 µM (inactive) | > 100 µM (inactive) | > 100 µM (inactive) | > 100 µM (inactive) |
| CCOC(=O)c1nc2ccc(C(F)(F)F)cc2nc1Nc1ccc(OC)c(OC)c1 | 44.1 µM (inactive) | 97.9 µM (inactive) | 94.4 µM (inactive) | > 100 µM (inactive) | 12 µM (inactive) | > 100 µM (inactive) | > 100 µM (inactive) | > 100 µM (inactive) | > 100 µM (inactive) | > 100 µM (inactive) | > 100 µM (inactive) | > 100 µM (inactive) | > 100 µM (inactive) | > 100 µM (inactive) | 31.7 µM (inactive) | 17.8 µM (inactive) | > 100 µM (inactive) | – | > 100 µM (inactive) |
| O=C(Nc1ccc(Cl)cc1Cl)C1C(=O)OC2(CCCCC2)OC1=O | 6.07 µM (inactive) | 10.7 µM (inactive) | 6.08 µM (inactive) | 5.16 µM (inactive) | 4.38 µM (inactive) | 6.43 µM (inactive) | 7.29 µM (inactive) | 8.2 µM (inactive) | 12.6 µM (inactive) | 8.99 µM (inactive) | 12 µM (inactive) | 3.45 µM (inactive) | 5.77 µM (inactive) | 2.17 µM (inactive) | 5.26 µM (inactive) | 5.97 µM (inactive) | 12.5 µM (inactive) | 5.32 µM (inactive) | 2.94 µM (inactive) |
| CCN(CC)CCNc1nc2ccc([N+](=O)[O-])cc2[n+]([O-])n1 | 36.8 µM (inactive) | 73.8 µM (inactive) | 15.7 µM (inactive) | 3.44 µM (inactive) | – | 26.2 µM (inactive) | 2.24 µM (inactive) | 16.1 µM (inactive) | 83 µM (inactive) | 10.4 µM (inactive) | 28.1 µM (inactive) | 20.1 µM (inactive) | 71.6 µM (inactive) | 10.5 µM (inactive) | 41.4 µM (inactive) | 18.4 µM (inactive) | 20.1 µM (inactive) | 21.9 µM (inactive) | 37.6 µM (inactive) |
| CC(CS(=O)(=O)Cc1ccccc1)C(N)=O (centres undefined) | > 100 µM (inactive) | > 100 µM (inactive) | > 100 µM (inactive) | > 100 µM (inactive) | > 100 µM (inactive) | > 100 µM (inactive) | > 100 µM (inactive) | > 100 µM (inactive) | > 100 µM (inactive) | > 100 µM (inactive) | > 100 µM (inactive) | > 100 µM (inactive) | > 100 µM (inactive) | > 100 µM (inactive) | > 100 µM (inactive) | > 100 µM (inactive) | > 100 µM (inactive) | > 100 µM (inactive) | > 100 µM (inactive) |
| O=c1c2ccccc2nc(N/N=C/c2ccc([N+](=O)[O-])cc2)n1-c1ccccc1 | 13.3 µM (inactive) | 18 µM (inactive) | 5.05 µM (inactive) | > 100 µM (inactive) | 13.3 µM (inactive) | 36.3 µM (inactive) | 20.9 µM (inactive) | 42.4 µM (inactive) | > 100 µM (inactive) | > 100 µM (inactive) | 31.4 µM (inactive) | 17.3 µM (inactive) | 10.7 µM (inactive) | 64.3 µM (inactive) | 20.7 µM (inactive) | > 100 µM (inactive) | 9.59 µM (inactive) | 15.1 µM (inactive) | > 100 µM (inactive) |
| O=C1c2cc3c(cc2CC12Cc1cc4c(cc1C2=O)CCCC4)CCCC3 | 62.1 µM (inactive) | 56.4 µM (inactive) | 62.7 µM (inactive) | 34.9 µM (inactive) | 24.2 µM (inactive) | > 100 µM (inactive) | > 100 µM (inactive) | > 100 µM (inactive) | > 100 µM (inactive) | 25.6 µM (inactive) | > 100 µM (inactive) | 40.2 µM (inactive) | > 100 µM (inactive) | 46.5 µM (inactive) | 33.8 µM (inactive) | 37.1 µM (inactive) | 18.5 µM (inactive) | 30.8 µM (inactive) | > 100 µM (inactive) |
| O=c1c2cc(-c3ccccc3)cnc2sn1-c1ccc(Br)cc1 | > 100 µM (inactive) | > 100 µM (inactive) | > 100 µM (inactive) | > 100 µM (inactive) | > 100 µM (inactive) | > 100 µM (inactive) | > 100 µM (inactive) | > 100 µM (inactive) | > 100 µM (inactive) | > 100 µM (inactive) | 47.5 µM (inactive) | > 100 µM (inactive) | > 100 µM (inactive) | – | > 100 µM (inactive) | > 100 µM (inactive) | > 100 µM (inactive) | > 100 µM (inactive) | > 100 µM (inactive) |
| COc1ccccc1NC(=O)C(=O)C(C#N)CC(C)(C)C=O (centres undefined) | > 100 µM (inactive) | > 100 µM (inactive) | > 100 µM (inactive) | > 100 µM (inactive) | > 100 µM (inactive) | > 100 µM (inactive) | > 100 µM (inactive) | > 100 µM (inactive) | > 100 µM (inactive) | > 100 µM (inactive) | > 100 µM (inactive) | > 100 µM (inactive) | > 100 µM (inactive) | > 100 µM (inactive) | – | > 100 µM (inactive) | > 100 µM (inactive) | > 100 µM (inactive) | > 100 µM (inactive) |
